Reference: patent US7629318B2, “Immunosuppressant compounds, methods and uses related thereto” (priority 2002, dated 2009)
pIC50: −log10 of the molar value. Where “and” joins values, the source holds several entries; their conditions need not be identical. Identical values can stand only once. Numbered stars: 1 amine (or outer) side, 2 acyl side, 3 side chain; on linkers, the order of the positions; unused ones are H or OH. Square brackets hold non-standard residues; d marks the D form. Peptide text beside a SMILES is read from it. * marks the point of attachment. ξ: configuration not given here. Gly(1-amidinopiperidin-4-yl) = N=C(N)N1CCC([C@H](N)C(=O)O)CC1; X1 = CC(C)c1oc([C@H](CO)N[*:1])nc1C(=O)[*:2]; Pro(3R-Ph) = O=C(O)[C@H]1NCC[C@@H]1c1ccccc1; Met(O) = CS(=O)CC[C@H](N)C(=O)O; Tic = O=C(O)[C@@H]1Cc2ccccc2CN1; Cha = N[C@@H](CC1CCCCC1)C(=O)O; NMe(benzyl) = CN(Cc1ccccc1)*; ξDisc = O=C(O)C1NCc2ccccc21; Nle = CCCC[C@H](N)C(=O)O; X3 = OCCOCCN*

Legend:
[1] = system: T-cell proliferation, lymph node cells of chimeric 0401-IE transgenic mice; details: DR4-LN; for Immunsupressive assays DR4-LN (Max) % Inhibition: maximal inhibition; for pIC50: read-out: Immunsupressive assays DR4-LN (IC50)
Summary of the method: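 Antigen-primed lymph node cells (1.5×10^5/well) from mice lacking murine class II and carrying a chimeric human RA-associated class II transgene, cultured 3 days with ovalbumin at half-maximal dose plus compound (~0.1–200 uM) in serum-free HL-1. Proliferation read by 3H-thymidine incorporation over the final 16 h.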

[2] = target: Cathepsin B1 (EC 3.4.22.1 from bovine spleen) (Bos taurus, UniProt P07688); details: Cathepsin B, 4 h
Description: The stability of the peptidomimetic compounds towards lysosomal degradation was examined by incubation with Cathepsin B1 (EC 3.4.22.1 from bovine spleen; Sigma-Aldrich, Taufkirchen; dissolved at 10000 U/l in ddH2O) and D (EC 3.4.23.5 from bovine spleen; Sigma-Aldrich, Taufkirchen; dissolved at 10000 U/l in ddH2O) for four hours at 37° C. using a compound concentration of 50 μM and an enzyme/substrate ratio of 0.4 U/μmol. The samples contained 25 ppm 4-isopropyl benzyl alcohol (IPBA; Sigma-Aldrich, Taufkirchen) as internal standard.
Assay buffer was prepared by adding 35 μl of a 1% IPBA in DMSO solution and 28 μl of a 10000 U/l Cathepsin B1 or Cathepsin D stock solution to 14 ml of 100 mM sodium acetate, 1 mM EDTA, 1 mM DTT, pH 5.00 or 100 mM sodium acetate, pH 4.50, respectively. 8.8 μl of a 5 mM (or 4.4 μl of a 10 mM) compound stock solution (in 10% DMSO/water) were placed into a 1.5 ml Eppendorf tube. The reaction was started by adding 875 μl fully supplemented assay buffer to each tube, whirlmixing and incubation at 37° C. At 0 and 4 hours 400 μl samples were taken and the enzyme was inactivated by addition of 40 μl 150% TFA aq. The samples were kept frozen at −20° C. until analysis by RP-HPLC (200 μl injection volume; Nucleosil 100-5 C18, 12.5×4.6 cm; Gradient: 20-50% acetonitrile in 30 min).

[3] = target: Cathepsin D (EC 3.4.23.5 from bovine spleen) (Bos taurus, UniProt P80209)
Chain of Cathepsin D (EC 3.4.23.5 from bovine spleen) (P80209 45-390): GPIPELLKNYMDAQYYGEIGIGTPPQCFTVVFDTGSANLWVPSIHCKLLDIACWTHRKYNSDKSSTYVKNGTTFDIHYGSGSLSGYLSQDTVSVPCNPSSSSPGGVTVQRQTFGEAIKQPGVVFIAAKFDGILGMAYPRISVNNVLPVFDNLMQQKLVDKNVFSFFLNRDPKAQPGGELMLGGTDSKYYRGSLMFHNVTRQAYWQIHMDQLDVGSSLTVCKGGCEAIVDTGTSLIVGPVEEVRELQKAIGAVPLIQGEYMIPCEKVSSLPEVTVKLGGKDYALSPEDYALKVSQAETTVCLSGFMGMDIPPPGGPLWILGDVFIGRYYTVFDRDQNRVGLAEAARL

SMILES | Immunsupressive assays DR4-LN (Max) % Inhibition [1] | pIC50 [1] | Stability (Arbitrary units) Cath B 4 h [2] | Stability (Arbitrary units) Cath D 4 h [3]
CSCC[C@H](NC(=O)C1c2ccccc2CN1C(=O)[C@H](CCCNC(=N)N)NC(=O)[C@H](CC1CCCCC1)NC(C)=O)C(N)=O (stereo partly drawn) [Compound P12-1, Ac-Cha-Arg-Disc-Met-NH2] (Ac-[Cha]R[ξDisc]M-NH2) | 5% | < 3.70 | 96 Arbitrary units | 103 Arbitrary units
CC(=O)N[C@@H](CC1CCCCC1)C(=O)N[C@H](C(=O)N1Cc2ccccc2C[C@H]1C(=O)N[C@@H](CC[S+](C)[O-])C(=O)N1CC[C@H](c2ccccc2)[C@H]1C(=O)N[C@@H](CO)c1nc(C(=O)N(C)C)c(C(C)C)o1)C1CCN(C(=N)N)CC1 (stereo partly drawn) [Compound P47, Ac-Cha-Gpg-Tic-Met(O)-βPhPro-[S(oxaz)L]-NMe2] (Ac-[Cha][Gly(1-amidinopiperidin-4-yl)][Tic][Met(O)][Pro(3R-Ph)][X1]-NMe2) | 77% | 4.11 | 100 Arbitrary units | 99 Arbitrary units
CSCC[C@H](NC(=O)[C@@H]1Cc2ccccc2CN1C(=O)[C@@H](NC(=O)[C@H](CC1CCCCC1)NC(C)=O)C1CCN(C(=N)N)CC1)C(=O)N1CC[C@H](c2ccccc2)[C@H]1C(=O)N[C@@H](CO)c1nc(C(=O)N(C)C)c(C(C)C)o1 [Compound P60, Ac-Cha-Gpg-Tic-Met-βPhPro-[S(oxaz)L]-NMe2] (Ac-[Cha][Gly(1-amidinopiperidin-4-yl)][Tic]M[Pro(3R-Ph)][X1]-NMe2) | 97% | 4.54 | 88 Arbitrary units and 98 Arbitrary units | 108 Arbitrary units
CCCC[C@H](NC(=O)C1c2ccccc2CN1C(=O)[C@H](CCCNC(=N)N)NC(=O)[C@H](CC1CCCCC1)NC(C)=O)C(=O)N(C)Cc1ccccc1 (stereo partly drawn) [Compound P72-1, Ac-Cha-Arg-Disc-Nle-N(Me)Bn] (Ac-[Cha]R[ξDisc][Nle]-{NMe(benzyl)}) | 103% | 4.51 | 98 Arbitrary units | 101 Arbitrary units
CSCC[C@H](NC(=O)[C@@H]1Cc2ccccc2CN1C(=O)[C@H](CCCNC(=N)N)NC(=O)[C@H](CC1CCCCC1)NC(C)=O)C(N)=O [Compound P1, Ac-Cha-Arg-Tic-Met-NH2] (Ac-[Cha]R[Tic]M-NH2) | 41% | 4.19 and 4.08 | 87 Arbitrary units | 102 Arbitrary units
CCCC[C@H](NC(=O)C1c2ccccc2CN1C(=O)[C@@H](NC(=O)[C@H](CC1CCCCC1)NC(C)=O)C1CCN(C(=N)N)CC1)C(=O)N(C)Cc1ccccc1 (single isomer, unassigned) [Compound P78-1] | – | 4.47 | 100 Arbitrary units | 104 Arbitrary units
CCCC[C@H](NC(=O)C1c2ccccc2CN1C(=O)[C@@H](NC(=O)[C@H](CC1CCCCC1)NC(C)=O)C1CCN(C(=N)N)CC1)C(=O)N1CC[C@H](c2ccccc2)[C@H]1C(=O)N[C@@H](CO)c1nc(C(=O)N(C)C)c(C(C)C)o1 (stereo partly drawn) [Compound P81-1] (Ac-[Cha][Gly(1-amidinopiperidin-4-yl)][ξDisc][Nle][Pro(3R-Ph)][X1]-NMe2) | – | 4.20 | 105 Arbitrary units | 106 Arbitrary units
CCCC[C@H](NC(=O)[C@@H]1Cc2ccccc2CN1C(=O)[C@H](CCCNC(=N)N)NC(=O)[C@H](CC1CCCCC1)NC(C)=O)C(=O)N1CC[C@H](c2ccccc2)[C@H]1C(=O)N[C@@H](CO)c1nc(C(=O)N(C)C)c(C(C)C)o1 [Compound P51, Ac-Cha-Arg-Tic-Nle-βPhPro-[S(oxaz)L]-NMe2] (Ac-[Cha]R[Tic][Nle][Pro(3R-Ph)][X1]-NMe2) | 100% | 4.42 and 4.44 | 103 Arbitrary units | 103 Arbitrary units
CSCC[C@H](NC(=O)C1c2ccccc2CN1C(=O)[C@@H](NC(=O)[C@H](CC1CCCCC1)NC(C)=O)C1CCN(C(=N)N)CC1)C(=O)N1CC[C@H](c2ccccc2)[C@H]1C(=O)N[C@@H](CO)c1nc(C(=O)N(C)C)c(C(C)C)o1 (stereo partly drawn) [Compound P41-1, Ac-Cha-Gpg-Disc-Met-βPhPro-[S(oxaz)L]-NMe2] (Ac-[Cha][Gly(1-amidinopiperidin-4-yl)][ξDisc]M[Pro(3R-Ph)][X1]-NMe2) | 96% | 4.31 | 104 Arbitrary units | 103 Arbitrary units
CSCC[C@H](NC(=O)[C@@H]1Cc2ccccc2CN1C(=O)[C@H](CCCNC(=N)N)NC(=O)[C@H](CC1CCCCC1)NC(C)=O)C(=O)N1CC[C@H](c2ccccc2)[C@H]1C(N)=O [Compound P31, Ac-Cha-Arg-Tic-Met-βPhPro-NH2] (Ac-[Cha]R[Tic]M[Pro(3R-Ph)]-NH2) | 64% | 4.74 | 102 Arbitrary units | 95 Arbitrary units
CSCC[C@H](NC(=O)C1c2ccccc2CN1C(=O)[C@@H](NC(=O)[C@H](CC1CCCCC1)NC(C)=O)C1CCN(C(=N)N)CC1)C(N)=O (stereo partly drawn) [Compound P66-1, Ac-Cha-Gpg-Disc-Met-NH2] (Ac-[Cha][Gly(1-amidinopiperidin-4-yl)][ξDisc]M-NH2) | 20% | 3.92 | 102 Arbitrary units | 101 Arbitrary units
CCCC[C@H](NC(=O)[C@@H]1Cc2ccccc2CN1C(=O)[C@@H](NC(=O)[C@H](CC1CCCCC1)NC(C)=O)C1CCN(C(=N)N)CC1)C(=O)NCCOCCO [Compound P70, Ac-Cha-Gpg-Tic-Nle-N(H)CH2CH2OCH2CH2OH] (Ac-[Cha][Gly(1-amidinopiperidin-4-yl)][Tic][Nle]-X3) | 54% | 4.38 | 110 Arbitrary units | 112 Arbitrary units
CCCC[C@H](NC(=O)C1c2ccccc2CN1C(=O)[C@@H](NC(=O)[C@H](CC1CCCCC1)NC(C)=O)C1CCN(C(=N)N)CC1)C(=O)N(C)Cc1ccccc1 (single isomer, unassigned) [Compound P76-1, Ac-Cha-Gpg-Disc-Nle-N(Me)Bn] | 103% | 4.47 | 100 Arbitrary units | 104 Arbitrary units
